In publication PMC8275550, “Developmental Neurotoxicity of Fipronil and Rotenone on a Human Neuronal In Vitro Test System” (Neurotoxicity Research, 2021):

What was measured:
[1] = test system: NT2 neurons; test: cells; type: cell-based, human; details: Homo sapiens; 24 h exposure; total neurite length/neuron; normalized to solvent control; read-out: IC50 neurite outgrowth (spec. EP)
Excerpt: Two photographs/well at × 20 magnification were taken.

[2] = test system: differentiating NT2 cells; test: cells; type: cell-based, human
Description: (§1) As established in our previous study (Stern et al. [2014]), cells were seeded into 96-well plates (Corning Costar, Kaiserslautern, Germany) at 80,000 cells per well and incubated in DMEM/F12 with 10 µM retinoic acid (RA) for 4 days (one media change). Cells were incubated for further 5 days (one media change) in media containing 10 µM RA and up to seven concentrations of a test compound. On day 9 (5-day exposition), cell viability was measured using a resazurin reduction assay (Trinova Biochem, Giessen, Germany). Subsequently, cells were fixed for 15 min in PFA and immunolabeled for ß-tubulin type III as above (Fig. 1a). For control purposes, photographs were taken at × 20 magnification as above. Neuronal differentiation was determined by measuring red fluorescence (excitation 568 nm, emission 603 nm) in a multiwell-plate reader (Infinite 200, TECAN, Germany). As a confirmation of the viability data, cell number was also quantified by measuring DAPI fluorescence (excitation 350 nm, emission 488 nm).

[3] = Resazurin reduction viability assay in the neuronal differentiation assay; type: cell-based, human; details: human
Description: as §1

[4] = test system: differentiating NT2 cells; test: as above; type: cell-based, human; details: differentiation assay, 5 days exposure; read-out: IC50 general cytotoxicity (resazurin), unspec. EP
Description: as §1

[5] = test system: NT2 precursor cells; test: cells; type: cell-based, human
Description: (§2) As established before (Stern et al. [2014]), NT2 precursor cells were seeded in 96-mm bacteriological grade Petri dishes (Greiner, Hamburg, Germany) at a density of 4 × 10^6–5 × 10^6 cells per dish. Within 24 h, cells formed free-floating spherical aggregates of 300–800 µm diameter. On the first day, 10 ml of culture medium was added to each Petri dish. On the next days, medium with 10 μM retinoic acid (RA) was added and changed every 2–3 days by transferring the cell suspension to centrifuge tubes and centrifuge at 200 × g for 7 min. After 9 days in culture, aggregates were gently resuspended using a Pasteur pipette, and seeded at 60,000 cells per well into black 96-well plates with flat transparent bottom (Nunc). Plates were lined with poly-D-lysine and laminin (10 µg/ml each), equipped with silicone stoppers from the Oris Cell Migration Assay (AMS Biotechnology, Abingdon, UK). Cells were allowed to adhere overnight. On the next day, stoppers were pulled leaving a monolayer of cells with a circular hole of 2-mm diameter. […] After one wash in PBS, cells were fixed for 15 min in PFA, washed twice in PBS-T and stained with DAPI (0.5 µg/ml) for 5 min, followed by two washes in PBS. A black 96-hole plastic mask leaving a central circular area of 2-mm diameter for each well was clipped to the bottom of the plate. This allows viewing only those cells that had migrated into the free areas left by the silicone stoppers during seeding (Fig. 1b). Migration was quantified by taking two photographs of each well and measuring the distance of the migration front from the black margin of the mask in using ImageJ. Occasional asymmetries caused by slight inaccuracies of silicone stopper placement were compensated by averaging measurements in four quadrants per well. […] Average null-migration values were subtracted from migrated distance before evaluation.

[6] = Resazurin reduction viability assay in the cell migration assay; type: cell-based; details: human; migration assay, 44 h exposure; > = highest tested concentration; read-out: IC50 general cytotoxicity (resazurin), unspec. EP
Description: as §2

[7] = test system: insect GABAa receptors; set-up: method as in Hainzl et al. [1996]; details: ref Hainzl et al. [1996]; cited from earlier work
[8] = test system: zebrafish embryo; details: cited from earlier work
[9] = test system: N2a neuroblastoma cells; set-up: method as in Sidiropoulou et al. ([2011]); details: ref Sidiropoulou et al. ([2011]); cited from earlier work
[10] = test system: SH-SY5Ycells; set-up: method as in Ruangjaroon et al. [2017]; details: incompletely differentiated cells; ref Ruangjaroon et al. [2017]; cited from earlier work
[11] = in vitro; details: human
Description: Dispersed cells were seeded into two identical poly-D-lysine (10 µg/ml) coated 96-well plates (Corning Costar, Kaiserslautern, Germany) at a density of 10,000 cells per well. Cultures were exposed to up to seven different concentrations of a test compound in DMEM/F12 (six technical replicates per concentration) for 24 h. One plate was immediately fixed in 4% paraformaldehyde in PBS (PFA) for 15 min. After 24 h, while a resazurin reduction assay (2 h) was performed on the other plate. […] Fixed cells were washed in PBS containing 0.1% Triton X100 (PBS-T) and immunolabeled for ß-tubulin type III (monoclonal anti ßtubIII, 1:20,000) using a red fluorescent secondary antibody (goat anti mouse-alexaFluor568, Invitrogen, Germany, 1:250) and DAPI (0.1 µg/ml) as nuclear counterstain. Cells were examined on a Zeiss Axiovert 200 inverted microscope equipped with a CoolSnap camera (Photometrics, Tucson, AZ, USA) and MetaMorph software (Molecular Devices, Sunnyvale, CA, USA), or a Zeiss Axiocam50 mono and Zeiss ZENlite 2.6 blue edition software. Two photographs/well at × 20 magnification were taken. Lengths of all neurites in the field of view were measured in ImageJ (http://imagej.nih.gov/ij) using the ‚segmented line ‘ tool (Fig. 1c) and divided by the number of ß-tubulin III-positive cells.

[12] = yes = at least one concentration of rescuing compound with specific endpoint significantly less affected

N#Cc1nn(-c2c(Cl)cc(C(F)(F)F)cc2Cl)c(N)c1[S+]([O-])C(F)(F)F (centres unmarked) [Fipronil, 5-Amino-1-[2,6-dichloro-4-(trifluoromethyl)phenyl]-4-(trifluoromethylsulfinyl)pyrazole-3-carbonitrile]
IC50 [1]: > 62.5 µM | IC50 ([2]; Homo sapiens, NT2, 120 h, 5 days exposure, read-out: IC50 neuronal differentiation (ß-tub III, spec. EP)): 14.8 µM | activity at 15.6 µM ([2]; Homo sapiens, NT2, 15.6 µM fipronil, read-out: ß-tubulin III-immunofluorescence (% of control)): < 50% | Rescue by NAC, neuronal differentiation [2, 12]: yes | viability ([3]; 15.6 µM fipronil, read-out: General viability (% of control)): > 90% | IC50 ([3]; differentiation assay, 5 days exposure, read-out: IC50 general cytotoxicity (resazurin), unspec. EP): 23.2 µM | IC50 [4]: 23.4 µM | Concentrations with significant differences between viability and migration ([5]; 44 h exposure): ≥ 15.63 µM | IC50 ([5]; Homo sapiens, 44 h exposure, read-out: IC50 migration (spec. EP)): 25.1 µM | Rescue by NAC, migration [5, 12]: yes | IC50 [6]: > 62.5 µM | Higher affinity to insect GABAa receptors than to vertebrate GABA receptors [7]: more than 100 fold | Concentration inhibiting zebrafish neurogenesis ([8]; via reduction of gene expression for neuron/glia differentiation, ref Park et al. [2020]): ~ 33 µM | Concentration disturbing development of motor circuits ([8]; zebrafish embryo, ref Stehr et al. [2006]): 0.7 µM | Concentration reducing outgrowth of axon-like processes [9]: 1 µM | Concentration reducing process outgrowth of vimentin-positive protrusions, but not viability [10]: 25 µM | IC50 [11]: > 62.5 µM
